# In ChEMBL document CHEMBL1150048, “Echinofuran, a New Furanosesquiterpene from the Gorgonian Echinogorgia praelonga” (J Nat Prod, 1992):
# Active and inactive are the calls of the source. The rule behind the calls is not given here.
# Key:
# [1] = Inhibition of cell division in sea urchin fertilized egg at 1 ug/ml; conditions: echinoidea, fertilized sea urchin eggs
# Poecilia reticulata = experiment: Ichthyotoxicity against Poecilia reticulata up to 10 ppm; type: organism-based; conditions: in vivo
# Bacillus subtilis = experiment: Antimicrobial activity against Bacillus subtilis at 100 ug/8 mm disk; type: functional, organism-based
# Staphylococcus aureus = experiment: Antimicrobial activity against Staphylococcus aureus at 100 ug/8 mm disk; type: functional, organism-based
# Escherichia coli = experiment: Antimicrobial activity against Escherichia coli at 100 ug/8 mm disk; type: functional, organism-based
# Aspergillus sp. = experiment: Antimicrobial activity against Aspergillus sp. at 100 ug/8 mm disk; type: functional, organism-based
# Cladosporium = experiment: Antimicrobial activity against Cladosporium at 100 ug/8 mm disk; type: functional, organism-based
smiles,measurement,setting,value
C=C1CCC2=C(C)Cc3occ(C)c3C[C@@H]12 [ECHINOFURAN],inhibition at 1 ug/ml,[1],90%
same,Activity,Poecilia reticulata,Non-toxic
same,Activity,Bacillus subtilis,inactive
same,Activity,Staphylococcus aureus,inactive
same,Activity,Escherichia coli,inactive
same,Activity,Aspergillus sp.,inactive
same,Activity,Cladosporium,inactive
